This passage reports relative viability results from the supplement of paper PMC10307832.

Holding throughout (assay): relative viability (nuclei count vs DMSO), 5 days (fraction); higher = more cells survive
Compound in assay [1]: C1COCCN1C2=NC(=NC3=C2OC4=C3C=CC=N4)C5=CC(=CC=C5)NC(=O)C6=CN=C(C=C6)N + CC(=O)Nc1cccc(-n2c(=O)n(C3CC3)c(=O)c3c(Nc4ccc(I)cc4F)n(C)c(=O)c(C)c32)c1 [Trametinib] (partner 0.02 µM)
A digest of the protocol: (§1)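 Lung cancer cell lines in 1536-well plates got either a single drug or a fixed anchor-drug dose together with five library-drug doses (not always all listed) in √10 steps, by pin tool, on the day after seeding. Nuclei were counted after 5 days, and relative viability is the treated-to-vehicle ratio of nuclei counts. Values are medians of duplicate plates.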

Compound in the assay “Entinostat + Bortezomib”: Nc1ccccc1NC(=O)c1ccc(CNC(=O)OCc2cccnc2)cc1 [Entinostat] + CC(C)C[C@H](NC(=O)[C@H](Cc1ccccc1)NC(=O)c1cnccn1)B(O)O [Bortezomib] (partner 0.002 µM)
The procedure, abridged: as §1

Compound in the assay “Entinostat + Crizotinib”: Nc1ccccc1NC(=O)c1ccc(CNC(=O)OCc2cccnc2)cc1 [Entinostat] + C[C@@H](Oc1cc(-c2cnn(C3CCNCC3)c2)cnc1N)c1c(Cl)ccc(F)c1Cl [Crizotinib] (partner 1 µM)
The procedure, abridged:
as §1

Compound in the assay “Entinostat + Dasatinib”: Nc1ccccc1NC(=O)c1ccc(CNC(=O)OCc2cccnc2)cc1 [Entinostat] + Cc1nc(Nc2ncc(C(=O)Nc3c(C)cccc3Cl)s2)cc(N2CCN(CCO)CC2)n1 [Dasatinib] (partner 0.075 µM)
A digest of the protocol: as §1

As for UMC-11, the relative viability came out at 0.733 in assay [1] (first compound 0.02 µM); 0.809 in assay [1] (first compound 0.06325 µM); 0.572 in assay [1] (first compound 0.2 µM); 0.706 in assay [1] (first compound 0.6325 µM); 0.614 in assay [1] (first compound 2 µM); 0.557 with Entinostat + Bortezomib (first compound 0.02 µM). For the same cell line, the relative viability with Entinostat + Bortezomib (first compound 0.06325 µM) was found to be 0.708; with Entinostat + Bortezomib (first compound 0.2 µM) it was 0.827; with Entinostat + Bortezomib (first compound 0.6325 µM), 0.217; in the assay with Entinostat + Bortezomib (first compound 2 µM), 0.111; with Entinostat + Crizotinib (first compound 0.02 µM), 0.623; with Entinostat + Crizotinib (first compound 0.06325 µM), 0.646. The relative viability with Entinostat + Crizotinib (first compound 0.2 µM) is 0.363; in the assay with Entinostat + Crizotinib (first compound 0.6325 µM), 0.109; in the assay with Entinostat + Crizotinib (first compound 2 µM) it was 0.0765; with Entinostat + Dasatinib (first compound 0.02 µM) it was 0.468; with Entinostat + Dasatinib (first compound 0.06325 µM), 0.478; with Entinostat + Dasatinib (first compound 0.2 µM), 0.399. The relative viability with Entinostat + Dasatinib (first compound 0.6325 µM) came to 0.193; in the assay with Entinostat + Dasatinib (first compound 2 µM) it was 0.17.
